Experimental data: patent publication US20250353891A1 (MEDIMMUNE LIMITED, priority 2022, published 2025)
pEC50: −log10 of the molar value. Read-outs that look alike come from different tables or passages of the source. Starred links: 1 amine or outer side, 2 acyl side, 3 side chain; linkers in the order of their positions; H or OH if unused. Non-standard residues stand in square brackets, D forms with d. Residues, ends and D or L forms follow the SMILES beside them. Groups on a side chain read outwards from the residue. *: point of attachment. C18 diacid = O=C(O)CCCCCCCCCCCCCCCCC(=O)*; Dip = N[C@H](C(=O)O)C(c1ccccc1)c1ccccc1; γGlu = O=C(O)[C@H](CCC(=O)[*:2])N[*:1]; αMeF = C[C@](N)(Cc1ccccc1)C(=O)O; AEEA = NCCOCCOCC(=O)O; Aib = CC(C)(N)C(=O)O

What was measured:
[1] = biological target: human GLP-1 receptor (hGLP-1R) (Homo sapiens, UniProt P43220); experiment: cAMP production (HTRF) in CHO cells expressing hGLP-1R; assay type: cell-based; design: expressed in transfected cells; conditions: for pEC50: geometric mean, read-out: hGLP-1R EC50; for % Relative Potency Ratio: % GLP-1R activity relative to GLP-1 / % GlucR activity relative to glucagon
Outline: (§1)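 Cells were resuspended in assay buffer at batch-optimized density, typically 1×10^5 cells/mL for hGLP-1R and 2×10^5 cells/mL for hGCGR. After 30 min incubation at room temperature with compound, cAMP was measured by two-step HTRF. EC50 values came from 4-parameter logistic fits of % Delta F.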

[2] = biological target: human glucagon receptor (hGCGR) (Homo sapiens, UniProt P47871); experiment: cAMP production (HTRF) in CHO cells expressing hGCGR; assay type: cell-based; design: expressed in transfected cells; conditions: geometric mean, read-out: hGluc-R EC50
Outline: as §1

[3] = Table 7, peptides modified at position 20, cAMP in CHO hGLP-1R cells
[4] = Table 7, peptides modified at position 20, cAMP in CHO hGCGR cells

human glucagon receptor (hGCGR), sequence (P47871 26-477): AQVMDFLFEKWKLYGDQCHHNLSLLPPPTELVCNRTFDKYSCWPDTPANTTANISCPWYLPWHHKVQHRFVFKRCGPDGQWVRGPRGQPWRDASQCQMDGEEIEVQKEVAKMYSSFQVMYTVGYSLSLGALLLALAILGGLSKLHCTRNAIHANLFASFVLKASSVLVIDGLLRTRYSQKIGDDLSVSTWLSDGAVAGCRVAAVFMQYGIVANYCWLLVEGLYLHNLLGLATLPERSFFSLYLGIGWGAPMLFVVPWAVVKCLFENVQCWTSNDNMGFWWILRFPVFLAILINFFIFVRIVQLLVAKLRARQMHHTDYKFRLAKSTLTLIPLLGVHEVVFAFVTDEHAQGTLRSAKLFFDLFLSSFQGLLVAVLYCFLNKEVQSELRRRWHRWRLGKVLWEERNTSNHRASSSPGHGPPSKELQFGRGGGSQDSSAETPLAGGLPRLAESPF
human GLP-1 receptor (hGLP-1R), sequence (P43220 24-463): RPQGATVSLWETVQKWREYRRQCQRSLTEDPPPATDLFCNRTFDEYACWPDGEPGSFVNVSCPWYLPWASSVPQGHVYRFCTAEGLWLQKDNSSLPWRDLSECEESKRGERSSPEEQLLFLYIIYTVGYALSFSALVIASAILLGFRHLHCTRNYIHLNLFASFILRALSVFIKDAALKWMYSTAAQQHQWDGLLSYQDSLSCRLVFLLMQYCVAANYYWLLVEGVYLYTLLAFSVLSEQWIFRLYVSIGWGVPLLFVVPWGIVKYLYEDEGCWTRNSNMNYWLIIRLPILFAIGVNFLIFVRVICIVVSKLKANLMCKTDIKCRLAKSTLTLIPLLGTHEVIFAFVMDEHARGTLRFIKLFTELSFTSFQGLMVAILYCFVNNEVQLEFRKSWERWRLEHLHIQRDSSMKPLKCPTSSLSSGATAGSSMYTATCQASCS

pEC50 [1, 3] | % Relative Potency Ratio ([1]; Table 7) | pEC50 [2, 4] | % Relative Potency Ratio [1] | pEC50 ([1]; cAMP, CHO cells, 0.1% BSA) | pEC50 ([2]; cAMP, CHO cells, 0.1% BSA) | SMILES
9.40 | 0.4 | 10.05 | – | – | – | CC(C)C[C@H](NC(=O)[C@H](Cc1c[nH]c2ccccc12)NC(=O)[C@H](CCC(N)=O)NC(=O)[C@@H](NC(=O)[C@H](Cc1ccccc1)NC(=O)[C@H](CC(=O)O)NC(=O)[C@H](CCCCNC(=O)CC[C@H](NC(=O)CCCCCCCCCCCCCCCCC(=O)O)C(=O)O)NC(=O)[C@H](C)NC(=O)[C@H](CCCNC(=N)N)NC(=O)[C@H](CCCNC(=N)N)NC(=O)[C@H](CO)NC(=O)[C@H](CC(=O)O)NC(=O)[C@H](CC(C)C)NC(=O)[C@](C)(Cc1ccccc1)NC(=O)[C@H](CCCCN)NC(=O)[C@H](CO)NC(=O)[C@H](Cc1ccc(O)cc1)NC(=O)[C@H](CC(=O)O)NC(=O)[C@H](CO)NC(=O)[C@@H](NC(=O)[C@H](Cc1ccccc1)NC(=O)[C@@H](NC(=O)CNC(=O)[C@H](CCC(N)=O)NC(=O)C(C)(C)NC(=O)[C@@H](N)Cc1c[nH]cn1)[C@@H](C)O)[C@@H](C)O)C(C)C)C(=O)N[C@@H](CC(C)C)C(=O)NC(C)(C)C(=O)N[C@H](C(=O)O)[C@@H](C)O [Peptide 337]
9.51 | 0.2 | 10.59 | – | – | – | CC(C)C[C@H](NC(=O)[C@H](Cc1c[nH]c2ccccc12)NC(=O)[C@H](CCC(N)=O)NC(=O)[C@@H](NC(=O)[C@H](Cc1ccccc1)NC(=O)[C@H](CC(=O)O)NC(=O)[C@H](CCCCNC(=O)CC[C@H](NC(=O)CCCCCCCCCCCCCCCCC(=O)O)C(=O)O)NC(=O)[C@H](C)NC(=O)[C@H](CCCNC(=N)N)NC(=O)[C@H](CCCNC(=N)N)NC(=O)C(C)(C)NC(=O)[C@H](CC(=O)O)NC(=O)[C@H](CC(C)C)NC(=O)[C@](C)(Cc1ccccc1)NC(=O)[C@H](CCCCN)NC(=O)[C@H](CO)NC(=O)[C@H](Cc1ccc(O)cc1)NC(=O)[C@H](CC(=O)O)NC(=O)[C@H](CO)NC(=O)[C@@H](NC(=O)[C@H](Cc1ccccc1)NC(=O)[C@@H](NC(=O)CNC(=O)[C@H](CCC(N)=O)NC(=O)C(C)(C)NC(=O)[C@@H](N)Cc1c[nH]cn1)[C@@H](C)O)[C@@H](C)O)C(C)C)C(=O)N[C@@H](CC(C)C)C(=O)NC(C)(C)C(=O)N[C@H](C(=O)O)[C@@H](C)O [Peptide 338]
9.51 | 0.4 | 10.15 | – | – | – | CC(C)C[C@H](NC(=O)[C@H](Cc1c[nH]c2ccccc12)NC(=O)[C@H](CCC(N)=O)NC(=O)[C@@H](NC(=O)[C@H](Cc1ccccc1)NC(=O)[C@H](CC(=O)O)NC(=O)[C@H](CCCCNC(=O)CC[C@H](NC(=O)CCCCCCCCCCCCCCCCC(=O)O)C(=O)O)NC(=O)[C@H](C)NC(=O)[C@H](CCCNC(=N)N)NC(=O)[C@H](CCCNC(=N)N)NC(=O)[C@H](CO)NC(=O)[C@H](CC(=O)O)NC(=O)[C@H](CC(C)C)NC(=O)[C@](C)(Cc1ccccc1)NC(=O)[C@H](CCCCN)NC(=O)[C@H](CO)NC(=O)[C@H](Cc1ccc(O)cc1)NC(=O)[C@H](CC(=O)O)NC(=O)[C@H](CO)NC(=O)[C@@H](NC(=O)[C@H](Cc1ccccc1)NC(=O)[C@@H](NC(=O)CNC(=O)[C@H](CCC(N)=O)NC(=O)C(C)(C)NC(=O)[C@@H](N)Cc1c[nH]cn1)[C@@H](C)O)[C@@H](C)O)C(C)C)C(=O)N[C@@H](CC(C)C)C(=O)NC(C)(C)C(=O)N[C@@H](CCC(=O)O)C(=O)O [Peptide 339] (H-H[Aib]QGTFTSDYSK[αMeF]LDSRRAK([γGlu-C18 diacid])DFVQWLL[Aib]E-OH; N-terminus assumed)
9.51 | 0.6 | 10.02 | – | – | – | CC(C)C[C@H](NC(=O)[C@H](Cc1c[nH]c2ccccc12)NC(=O)[C@H](CCC(N)=O)NC(=O)[C@@H](NC(=O)[C@H](Cc1ccccc1)NC(=O)[C@H](CC(=O)O)NC(=O)[C@H](CCCCNC(=O)CC[C@H](NC(=O)CCCCCCCCCCCCCCCCC(=O)O)C(=O)O)NC(=O)[C@H](C)NC(=O)[C@H](CCCNC(=N)N)NC(=O)[C@H](CCCNC(=N)N)NC(=O)[C@H](CO)NC(=O)[C@H](CC(=O)O)NC(=O)[C@H](CC(C)C)NC(=O)[C@](C)(Cc1ccccc1)NC(=O)[C@H](CCCCN)NC(=O)[C@H](CO)NC(=O)[C@H](Cc1ccc(O)cc1)NC(=O)[C@H](CC(=O)O)NC(=O)[C@H](CO)NC(=O)[C@@H](NC(=O)[C@H](Cc1ccccc1)NC(=O)[C@@H](NC(=O)CNC(=O)[C@H](CCC(N)=O)NC(=O)C(C)(C)NC(=O)[C@@H](N)Cc1c[nH]cn1)[C@@H](C)O)[C@@H](C)O)C(C)C)C(=O)N[C@@H](CC(C)C)C(=O)NC(C)(C)C(=O)N[C@H](C(=O)N[C@@H](CCC(=O)O)C(=O)O)[C@@H](C)O [Peptide 340]
9.44 | 0.4 | 10.14 | – | – | – | CC(C)C[C@H](NC(=O)[C@H](Cc1c[nH]c2ccccc12)NC(=O)[C@H](CCC(N)=O)NC(=O)[C@@H](NC(=O)[C@H](Cc1ccccc1)NC(=O)[C@H](CC(=O)O)NC(=O)[C@H](CCCCNC(=O)CC[C@H](NC(=O)CCCCCCCCCCCCCCCCC(=O)O)C(=O)O)NC(=O)[C@H](C)NC(=O)[C@H](CCCNC(=N)N)NC(=O)[C@H](CCCNC(=N)N)NC(=O)[C@H](CO)NC(=O)[C@H](CC(=O)O)NC(=O)[C@H](CC(C)C)NC(=O)[C@](C)(Cc1ccccc1)NC(=O)[C@H](CCCCN)NC(=O)[C@H](CO)NC(=O)[C@H](Cc1ccc(O)cc1)NC(=O)[C@H](CC(=O)O)NC(=O)[C@H](CO)NC(=O)[C@@H](NC(=O)[C@H](Cc1ccccc1)NC(=O)[C@@H](NC(=O)CNC(=O)[C@H](CCC(N)=O)NC(=O)C(C)(C)NC(=O)[C@@H](N)Cc1c[nH]cn1)[C@@H](C)O)[C@@H](C)O)C(C)C)C(=O)N[C@@H](CC(C)C)C(=O)N[C@@H](CCC(=O)O)C(=O)NC(C)(C)C(=O)N[C@H](C(=O)O)[C@@H](C)O [Peptide 341]
9.66 | 43.4 | 8.32 | – | – | – | CC[C@H](C)[C@H](NC(=O)[C@H](Cc1c[nH]c2ccccc12)NC(=O)[C@H](CCC(N)=O)NC(=O)[C@@H](NC(=O)[C@H](Cc1ccccc1)NC(=O)[C@H](CC(=O)O)NC(=O)[C@H](CCCCNC(=O)CC[C@H](NC(=O)CCCCCCCCCCCCCCCCC(=O)O)C(=O)O)NC(=O)[C@H](C)NC(=O)[C@H](C)NC(=O)[C@H](CCCNC(=N)N)NC(=O)[C@H](CO)NC(=O)[C@H](CC(=O)O)NC(=O)[C@H](CC(C)C)NC(=O)[C@](C)(Cc1ccccc1)NC(=O)[C@H](CCCCN)NC(=O)[C@H](CO)NC(=O)[C@@H](NC(=O)[C@H](CC(=O)O)NC(=O)[C@H](CO)NC(=O)[C@@H](NC(=O)[C@H](Cc1ccccc1)NC(=O)[C@@H](NC(=O)CNC(=O)[C@H](CCC(N)=O)NC(=O)C(C)(C)NC(=O)[C@@H](N)Cc1c[nH]cn1)[C@@H](C)O)[C@@H](C)O)C(C)C)C(C)C)C(=O)N[C@@H](C)C(=O)N[C@@H](CC(N)=O)C(=O)N[C@H](C(=O)O)[C@@H](C)O [Peptide 342]
– | – | – | 4.2 | 10.23 | 9.90 | CC[C@H](C)[C@H](NC(=O)[C@H](Cc1c[nH]c2ccccc12)NC(=O)[C@H](CCCCNC(=O)CC[C@H](NC(=O)CCCCCCCCCCCCCCCCC(=O)O)C(=O)O)NC(=O)[C@@H](NC(=O)[C@H](Cc1ccccc1)NC(=O)[C@H](CC(=O)O)NC(=O)[C@H](CCC(N)=O)NC(=O)[C@H](C)NC(=O)[C@H](C)NC(=O)[C@H](CCCNC(=N)N)NC(=O)[C@H](CO)NC(=O)[C@H](CC(=O)O)NC(=O)[C@H](CC(C)C)NC(=O)[C@@H](NC(=O)[C@H](CCCCN)NC(=O)[C@H](CO)NC(=O)[C@@H](NC(=O)[C@H](CC(=O)O)NC(=O)[C@H](CO)NC(=O)[C@@H](NC(=O)[C@H](Cc1ccccc1)NC(=O)[C@H](CO)NC(=O)CNC(=O)[C@H](CCC(N)=O)NC(=O)C(C)(C)NC(=O)[C@@H](N)Cc1c[nH]cn1)[C@@H](C)O)C(C)C)C(c1ccccc1)c1ccccc1)C(C)C)C(=O)N[C@@H](C)C(=O)N[C@@H](CC(N)=O)C(=O)N[C@H](C(N)=O)[C@@H](C)O [Peptide 343] (H-H[Aib]QGSFTSDVSK[Dip]LDSRAAQDFVK([γGlu-C18 diacid])WIANT-NH2; N-terminus assumed)
– | – | – | – | 9.87 | < 7.57 | CC[C@H](C)[C@H](NC(=O)C(C)(C)NC(=O)[C@H](CCCCNC(=O)COCCOCCNC(=O)COCCOCCNC(=O)CC[C@H](NC(=O)CCCCCCCCCCCCCCCCC(=O)O)C(=O)O)NC(=O)[C@@H](NC(=O)[C@](C)(Cc1ccccc1)NC(=O)[C@H](CC(=O)O)NC(=O)[C@H](CCC(N)=O)NC(=O)[C@H](C)NC(=O)[C@H](C)NC(=O)[C@H](CCCNC(=N)N)NC(=O)[C@H](CO)NC(=O)[C@H](CC(=O)O)NC(=O)[C@H](CC(C)C)NC(=O)C(C)(C)NC(=O)[C@H](CCCCN)NC(=O)[C@H](CO)NC(=O)[C@@H](NC(=O)[C@H](CC(=O)O)NC(=O)[C@H](CO)NC(=O)[C@@H](NC(=O)[C@](C)(Cc1ccccc1)NC(=O)[C@H](CO)NC(=O)CNC(=O)[C@H](CCC(N)=O)NC(=O)[C@H](CO)NC(=O)[C@@H](N)Cc1c[nH]cn1)[C@@H](C)O)C(C)C)C(C)C)C(=O)N[C@@H](C)C(=O)N[C@@H](CC(N)=O)C(N)=O [Peptide 344] (H-HSQGS[αMeF]TSDVSK[Aib]LDSRAAQD[αMeF]VK([AEEA-AEEA-γGlu-C18 diacid])[Aib]IAN-NH2; N-terminus assumed)
